Reference: patent publication US20250127914A1, “ANTIBODY-CONJUGATED 8-SULFONYL-BENZAZEPINE COMPOUNDS AND THEIR USES” (BOLT BIOTHERAPEUTICS, INC., priority 2022, published 2025)

Assays:
human TLR8 = molecular target: T1, human TLR8 (Homo sapiens, UniProt Q9NR97); assay: HEK Reporter Assay, human TLR8; type: cell-based; details: HEK293 NFKB reporter cells expressing human TLR8; read-out: HEK293 hTLR8 EC50
T1 construct: host or cells: HEK293 NF-kB reporter cells
T1 sequence (Q9NR97 27-1041): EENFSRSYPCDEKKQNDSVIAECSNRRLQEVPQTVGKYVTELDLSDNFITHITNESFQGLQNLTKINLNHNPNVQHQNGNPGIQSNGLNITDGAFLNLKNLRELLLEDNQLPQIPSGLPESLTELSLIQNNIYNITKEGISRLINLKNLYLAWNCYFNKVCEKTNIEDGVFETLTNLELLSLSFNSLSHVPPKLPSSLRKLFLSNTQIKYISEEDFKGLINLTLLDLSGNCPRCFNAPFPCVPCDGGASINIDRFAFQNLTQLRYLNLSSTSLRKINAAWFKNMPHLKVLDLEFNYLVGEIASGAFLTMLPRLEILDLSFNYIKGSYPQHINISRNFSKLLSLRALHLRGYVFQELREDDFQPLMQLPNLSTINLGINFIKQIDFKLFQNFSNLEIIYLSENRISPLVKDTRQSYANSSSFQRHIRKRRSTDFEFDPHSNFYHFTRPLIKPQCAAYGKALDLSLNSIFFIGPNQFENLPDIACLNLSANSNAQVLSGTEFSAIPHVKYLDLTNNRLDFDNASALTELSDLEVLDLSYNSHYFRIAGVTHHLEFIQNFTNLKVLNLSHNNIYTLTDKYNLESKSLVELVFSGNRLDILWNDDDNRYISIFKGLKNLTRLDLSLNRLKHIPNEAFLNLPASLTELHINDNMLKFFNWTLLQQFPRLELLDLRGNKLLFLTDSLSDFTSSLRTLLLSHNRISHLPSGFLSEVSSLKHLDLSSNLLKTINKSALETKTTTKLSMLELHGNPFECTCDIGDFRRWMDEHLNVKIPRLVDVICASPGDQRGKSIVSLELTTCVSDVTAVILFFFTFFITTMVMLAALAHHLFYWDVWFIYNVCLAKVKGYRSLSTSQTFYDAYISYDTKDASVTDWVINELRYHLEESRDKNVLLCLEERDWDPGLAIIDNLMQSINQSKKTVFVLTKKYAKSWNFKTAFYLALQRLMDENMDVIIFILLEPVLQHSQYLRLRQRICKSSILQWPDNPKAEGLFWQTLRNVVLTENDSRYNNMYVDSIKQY
Description: (§1) Exemplary 8-sulfonyl-2-aminobenzazepine compounds (8SO2Bz) of the invention were synthesized, purified, and characterized by mass spectrometry and shown to have the expected mass. Additional experimental procedures are found in the Examples. Activity against HEK293 NFKB reporter cells expressing human TLR7 or human TLR8 was measured according to Example 202.
(§2) HEK293 reporter cells expressing human TLR7 or human TLR8 were purchased from Invivogen and vendor protocols were followed for cellular propagation and experimentation. Briefly, cells were grown to 80-85% confluence at 5% CO2 in DMEM supplemented with 10% FBS, Zeocin, and Blasticidin. Cells were then seeded in 96-well flat plates at 4×10^4 cells/well with substrate containing HEK detection medium and immunostimulatory molecules. Activity was measured using a plate reader at 620-655 nm wavelength.

human TLR7 = molecular target: T2, human TLR7 (Homo sapiens, UniProt Q9NYK1); assay: HEK Reporter Assay, human TLR7; type: cell-based; details: HEK293 NFKB reporter cells expressing human TLR7; read-out: HEK293 hTLR7 EC50
T2 construct: host or cells: HEK293 NF-kB reporter cells
T2 sequence (Q9NYK1 27-1049): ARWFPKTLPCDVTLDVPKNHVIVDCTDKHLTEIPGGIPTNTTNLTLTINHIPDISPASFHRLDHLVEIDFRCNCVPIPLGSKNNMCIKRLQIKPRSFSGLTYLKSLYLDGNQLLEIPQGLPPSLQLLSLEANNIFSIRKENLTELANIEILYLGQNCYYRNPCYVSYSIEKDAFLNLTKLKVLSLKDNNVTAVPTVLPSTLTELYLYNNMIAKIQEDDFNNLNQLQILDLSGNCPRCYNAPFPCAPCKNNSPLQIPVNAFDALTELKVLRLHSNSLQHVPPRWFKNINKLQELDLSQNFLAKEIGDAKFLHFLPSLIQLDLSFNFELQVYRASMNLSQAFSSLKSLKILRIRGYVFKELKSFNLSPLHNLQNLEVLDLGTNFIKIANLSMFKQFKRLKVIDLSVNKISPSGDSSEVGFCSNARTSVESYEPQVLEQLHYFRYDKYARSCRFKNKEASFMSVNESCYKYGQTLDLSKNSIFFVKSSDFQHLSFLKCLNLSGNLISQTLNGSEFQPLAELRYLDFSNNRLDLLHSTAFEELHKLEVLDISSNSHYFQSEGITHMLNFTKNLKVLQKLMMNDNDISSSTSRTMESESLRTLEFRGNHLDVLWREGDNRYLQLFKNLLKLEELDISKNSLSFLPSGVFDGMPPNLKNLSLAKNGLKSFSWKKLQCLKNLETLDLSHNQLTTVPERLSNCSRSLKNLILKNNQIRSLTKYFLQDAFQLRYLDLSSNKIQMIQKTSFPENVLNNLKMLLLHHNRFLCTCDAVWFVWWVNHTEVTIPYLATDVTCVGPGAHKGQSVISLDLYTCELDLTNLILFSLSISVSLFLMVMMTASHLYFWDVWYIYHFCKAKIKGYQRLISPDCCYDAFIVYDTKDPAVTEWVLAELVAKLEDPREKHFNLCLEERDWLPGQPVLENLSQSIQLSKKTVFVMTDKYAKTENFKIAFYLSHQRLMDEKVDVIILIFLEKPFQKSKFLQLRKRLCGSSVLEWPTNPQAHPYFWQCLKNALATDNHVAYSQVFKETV
Description: as §1, §2

| EC50 (human TLR8) [nM] | EC50 (human TLR7) [nM] | SMILES |
| --- | --- | --- |
| 1060 |  | CCCN(OCC)C(=O)C1=Cc2ccc(S(=O)(=O)c3ccc(C(=O)OC)cc3)cc2N=C(N)C1 |
| < 2.3 | 395 | CCCN(OCCNC(=O)OC(C)(C)C)C(=O)C1=Cc2ccc(S(=O)(=O)N(C)C)cc2N=C(N)C1 [Immunoconjugate 8SO2Bz-2] |
| 202 |  | CCCN(OCC)C(=O)C1=Cc2ccc(S(=O)(=O)NC)cc2N=C(N)C1 [Immunoconjugate 8SO2Bz-3] |
